# Reference: patent publication US20160046592A1, “PHARMACEUTICAL COMPOSITION FOR THE TREATMENT OF DIABETES” (Ajinomoto Co., Inc., priority 2013, published 2016)
# Where a name gives a salt, the structure may show the parent alone.
# Molecular target: T1, PPAR-α (Homo sapiens, UniProt Q07869)
# T1 construct: expressed in transfected cells; host or cells: CV-1 (African green monkey kidney)
# T1 sequence (Q07869 167-468): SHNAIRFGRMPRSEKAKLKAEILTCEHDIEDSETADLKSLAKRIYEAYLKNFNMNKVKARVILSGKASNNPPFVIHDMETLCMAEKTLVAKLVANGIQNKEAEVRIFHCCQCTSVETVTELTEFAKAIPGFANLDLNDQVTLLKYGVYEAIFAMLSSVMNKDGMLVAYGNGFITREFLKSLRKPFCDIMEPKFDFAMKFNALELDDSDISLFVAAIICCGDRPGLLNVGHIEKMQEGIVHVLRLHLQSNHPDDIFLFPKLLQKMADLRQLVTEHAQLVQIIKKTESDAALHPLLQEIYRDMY
# Experiment: Measurement of PPAR-α activity (GAL4 luciferase reporter assay in CV-1 cells)
# Type: cell-based
# Conditions: 100(A/B): A = maximum PPAR-α activity of test compound at 3, 10, 30 and 100 μM, B = activity of the compound of WO/2011/058154 at 100 μM, 18 to 20 hours, read-out: Relative fold induction (%) of PPAR α
# Experimental: The PPAR-α activity was measured according to the published article (THE JOURNAL OF BIOLOGICAL CHEMISTRY Vol. 270, No 0.22: 12953-12956, 1995).
# Plasmids used for the PPAR-α activity measurement were constructed as follows. A luciferase expression plasmid (UAS×5-TK-Luc) used was obtained by introducing a sequence in which five yeast GAL4-binding sequences are linked in tandem into a portion upstream of a thymidine kinase promoter of pTAL-Luc (Takara Bio Inc., 6252-1). A PPAR-α receptor expression plasmid (hGR-GAL4-hPPARα) used was obtained by introducing a human GR N-terminal region (1-76aa), a yeast GAL4 DNA-binding region (1-147aa), and a PPARα ligand-binding region (167-468aa) between Not I and Sal I sites of pExchange-1 Core Vector (Invitrogen, 211176).
# A reporter assay was conducted by the following method using African green monkey kidney-derived CV-1 cells. The CV-1 cells were seeded in a 96-well plate (Thermo Fisher Scientific K.K., 4938) at 2×10^4 cells/well by using a 10% FBS-containing DMEM (NACALAI TESQUE, INC., 0845874) medium. After culturing under conditions of 37° C. and 5% CO2 for 2 hours, the cells were transfected with the plasmids. The transfection was conducted by using Lipofectamine LTX (Invitrogen, 15338-100) according to the attached manual. The plasmid solution was prepared by adding a mixture solution of the luciferase expression plasmid and the PPAR-α receptor expression plasmid to OPTI-MEM I (Invitrogen, 11058-021). After the transfection, the test compound was added, and the cells were cultured at 37° C. in the presence of 5% CO2 for 18 to 20 hours. After the culturing, the luciferase activity was measured with Luminescensor JNR (ATTO) by using Bright-Glo (Promega, E2620).
# The fold induction of PPAR-α by each test compound was calculated by the following method. A relative fold induction (%) of PPAR-α by the test compound was defined as 100 (A/B), where A represents the maximum value of the PPAR-α activities of the test compound at 3 μM, 10 μM, 30 μM, and 100 μM, and B represents the PPAR-α activity of the compound of WO/2011/058154 at 100 μM.
row,Emax [%],Compound
1,35,"CSc1cc(F)c(F)cc1-c1ccc(OCc2cccc(C(=O)N(CC(=O)O)Cc3nc(C)no3)c2)cc1 [Example 68, 2-[[3-[[4-(4,5-Difluoro-2-methylsulfanyl-phenyl)phenoxy]methyl]benzoyl]-[(3-methyl-1,2,4-oxadiazol-5-yl)methyl]amino]acetic Acid]"
2,7.1,"NC(=O)CCN(CC(=O)O)C(=O)c1cccc(COc2ccc(-c3cc(F)c(F)c4ccoc34)cc2)c1 [Example 79, 2-[(3-Amino-3-oxo-propyl)-[3-[[4-(4,5-difluorobenzofuran-7-yl)phenoxy]methyl]benzoyl]amino]acetic Acid]"
3,25,"COC(C)CN(CC(=O)O)C(=O)c1cccc(COc2ccc(-c3cc(F)c(F)cc3SC)cc2)c1 (stereo not drawn) [Example 45, 2-[[3-[[4-(4,5-Difluoro-2-methylsulfanyl-phenyl)phenoxy]methyl]benzoyl]-(2-methoxypropyl)amino]acetic Acid]"
4,16,"CSc1cc(F)c(F)cc1-c1ccc(OCc2cccc(C(=O)N(CC(=O)O)Cc3nnc(C)o3)c2)cc1 [Example 73, 2-[[3-[[4-(4,5-Difluoro-2-methylsulfanyl-phenyl)phenoxy]methyl]benzoyl]-[(5-methyl-1,3,4-oxadiazol-2-yl)methyl]amino]acetic Acid]"
5,8.1,"CSc1cc(F)c(F)cc1-c1ccc(OCc2cccc(C(=O)N(CC(=O)O)Cc3cocn3)c2)cc1 [Example 52, 2-[[3-[[4-(4,5-Difluoro-2-methylsulfanyl-phenyl)phenoxy]methyl]benzoyl]-(oxazol-4-ylmethyl)amino]acetic Acid]"
6,4.8,"CSc1cc(F)c(F)cc1-c1ccc(OCc2cccc(C(=O)N(CC(=O)O)CC3CCCNC3)c2)cc1 (stereo not drawn) [Example 50, 2-[[3-[[4-(4,5-Difluoro-2-methylsulfanyl-phenyl)phenoxy]methyl]benzoyl]-(3-piperidylmethyl)amino]acetic Acid Trifluoroacetate]"
7,91,"COC[C@H](C)N(CC(=O)O)C(=O)c1cccc(COc2ccc(-c3cc(F)c(F)c4ccoc34)cc2)c1 [Example 80, 2-[[3-[[4-(4,5-Difluorobenzofuran-7-yl)phenoxy]methyl]benzoyl]-[(1S)-2-methoxy-1-methyl-ethyl]amino]acetic Acid]"
8,11,"O=C(O)CN(C(=O)c1cccc(COc2ccc(-c3cc(F)c(F)c4ccoc34)cc2)c1)C1CCNC1=O (stereo not drawn) [Example 82, 2-[[3-[[4-(4,5-Difluorobenzofuran-7-yl)phenoxy]methyl]benzoyl]-(2-oxopyrrolidin-3-yl)amino]acetic Acid]"
9,4,"CSc1cc(F)c(F)cc1-c1ccc(OCc2cccc(C(=O)N(CC(=O)O)[C@H]3CC[C@@H](N)CC3)c2)cc1 [Example 48, 2-[(4-Aminocyclohexyl)-[3-[[4-(4,5-difluoro-2-methylsulfanyl-phenyl)phenoxy]methyl]benzoyl]amino]acetic Acid Trifluoroacetate]"
10,17,"CSc1cc(F)c(F)cc1-c1ccc(OCc2cccc(C(=O)N3C[C@H](C(N)=O)C[C@H]3C(=O)O)c2)cc1 [Example 61, (2S,4R)-4-Carbamoyl-1-[3-[[4-(4,5-difluoro-2-methylsulfanyl-phenyl)phenoxy]methyl]benzoyl]pyrrolidine-2-carboxylic Acid]"
11,29,"COCCOCCN(CC(=O)O)C(=O)c1cccc(COc2ccc(-c3cc(F)c(F)cc3SC)cc2)c1 [Example 49, 2-[[3-[[4-(4,5-Difluoro-2-methylsulfanyl-phenyl)phenoxy]methyl]benzoyl]-[2-(2-methoxyethoxy)ethyl]amino]acetic Acid]"
12,5.8,"CSc1cc(F)c(F)cc1-c1ccc(OCc2cccc(C(=O)N(CCS(N)(=O)=O)CC(=O)O)c2)cc1 [Example 51, 2-[[3-[[4-(4,5-Difluoro-2-methylsulfanyl-phenyl)phenoxy]methyl]benzoyl]-(2-sulfamoylethyl)amino]acetic Acid]"

# Continued, compound first:
row,Compound,Emax [%]
1,"CSc1cc(F)c(F)cc1-c1ccc(OCc2cccc(C(=O)N(CC(=O)O)Cc3ccncc3)c2)cc1 [Example 19, 2-[[3-[[4-(4,5-Difluoro-2-methylsulfanyl-phenyl)phenoxy]methyl]benzoyl]-(4-pyridylmethyl)amino]acetic Acid Trifluoroacetate]",21
2,"CS(=O)(=O)CCN(CC(=O)O)C(=O)c1cccc(COc2ccc(-c3cc(F)c(F)c4ccoc34)cc2)c1 [Example 8, 2-[[3-[[4-(4,5-Difluorobenzofuran-7-yl)phenoxy]methyl]benzoyl]-(2-methylsulfonylethyl)amino]acetic Acid]",11
3,"CSc1cc(F)c(F)cc1-c1ccc(OCc2cccc(C(=O)N(CC(=O)O)Cc3ncco3)c2)cc1 [Example 42, 2-[[3-[[4-(4,5-Difluoro-2-methylsulfanyl-phenyl)phenoxy]methyl]benzoyl]-(oxazol-2-ylmethyl)amino]acetic Acid]",13
4,"CSc1cc(F)c(F)cc1-c1ccc(OCc2cccc(C(=O)N(CCN3CCS(=O)(=O)CC3)CC(=O)O)c2)cc1 [Example 41, 2-[[3-[[4-(4,5-Difluoro-2-methylsulfanyl-phenyl)phenoxy]methyl]benzoyl]-[2-(1,1-dioxo-1,4-thiazinan-4-yl)ethyl]amino]acetic Acid Trifluoroacetate]",12
5,"CCNCCN(CC(=O)O)C(=O)c1cccc(COc2ccc(-c3cc(F)c(F)cc3SC)cc2)c1 [Example 43, 2-[[3-[[4-(4,5-Difluoro-2-methylsulfanyl-phenyl)phenoxy]methyl]benzoyl]-[2-(ethylamino)ethyl]amino]acetic Acid Trifluoroacetate]",9
6,"CNCCN(CC(=O)O)C(=O)c1cccc(COc2ccc(-c3cc(F)c(F)cc3SC)cc2)c1 [Example 28, 2-[[3-[[4-(4,5-Difluoro-2-methylsulfanyl-phenyl)phenoxy]methyl]benzoyl]-[2-(methylamino)ethyl]amino]acetic Acid Trifluoroacetate]",10
7,"CSc1cc(F)c(F)cc1-c1ccc(OCc2cccc(C(=O)N(CCC(C)O)CC(=O)O)c2)cc1 (stereo not drawn) [Example 21, 2-[[3-[[4-(4,5-Difluoro-2-methylsulfanyl-phenyl)phenoxy]methyl]benzoyl]-(3-hydroxybutyl)amino]acetic Acid]",15
8,"CSc1cc(F)c(F)cc1-c1ccc(OCc2cccc(C(=O)N(CC(=O)O)CC3CCN(C)CC3)c2)cc1 [Example 37, 2-[[3-[[4-(4,5-Difluoro-2-methylsulfanyl-phenyl)phenoxy]methyl]benzoyl]-[(1-methyl-4-piperidyl)methyl]amino]acetic Acid Trifluoroacetate]",10
9,"CCN1CCC(CN(CC(=O)O)C(=O)c2cccc(COc3ccc(-c4cc(F)c(F)cc4SC)cc3)c2)CC1 [Example 38, 2-[[3-[[4-(4,5-Difluoro-2-methylsulfanyl-phenyl)phenoxy]methyl]benzoyl]-[(1-ethyl-4-piperidyl)methyl]amino]acetic Acid Trifluoroacetate]",8.9
10,"O=C(O)CN(CC1CCOCC1)C(=O)c1cccc(COc2ccc(-c3cc(F)c(F)c4ccoc34)cc2)c1 [Example 9, 2-[[3-[[4-(4,5-Difluorobenzofuran-7-yl)phenoxy]methyl]benzoyl]-(tetrahydropyran-4-ylmethyl)amino]acetic Acid]",24
11,"CSc1cc(F)c(F)cc1-c1ccc(OCc2cccc(C(=O)N(CC(=O)O)CC3CCNCC3)c2)cc1 [Example 35, 2-[[3-[[4-(4,5-Difluoro-2-methylsulfanyl-phenyl)phenoxy]methyl]benzoyl]-(4-piperidylmethyl)amino]acetic Acid Trifluoroacetate]",8.5
12,"COCCCN(CC(=O)O)C(=O)c1cccc(COc2ccc(-c3cc(F)c(F)cc3SC)cc2)c1 [Example 30, 2-[[3-[[4-(4,5-Difluoro-2-methylsulfanyl-phenyl)phenoxy]methyl]benzoyl]-(3-methoxypropyl)amino]acetic Acid]",83
